Assay results published in PubChem BioAssay AID1508612.

Test: passive permeability, PAMPA, ADME assay (AID 1508612)
Settings: pH 7.4, 30.0 min, 50.0 µM

SMILES	Papp
N=c1c2c(n(Cc3ccccc3)c3c1CCC3)CCC2	< 1 ×10⁻⁶ cm/s
c1ccc(CNc2nc(NCc3ccccc3)c3ccccc3n2)cc1	253 ×10⁻⁶ cm/s
CCn1c(=O)cc(OCC(=O)N2CCN(c3cccc(Cl)c3)CC2)c2ccccc21	941 ×10⁻⁶ cm/s
CN(C)c1cc(-c2nc(Nc3ccc(F)c(F)c3)c3ccccc3n2)ccn1	> 1000 ×10⁻⁶ cm/s
Nc1c(C(=O)N2CCCCC2)sc(=S)n1-c1ccccc1	> 1000 ×10⁻⁶ cm/s
COc1ccnc(NC(=S)N2CCN(c3cccc(C(F)(F)F)n3)CC2)c1	> 1000 ×10⁻⁶ cm/s
O=c1c2c([nH]c3ccc(Br)cc13)CCCC2	62.4 ×10⁻⁶ cm/s
Cc1cc(C)cc(NS(=O)(=O)c2ccc3[nH]cc(C(=O)NCc4ccco4)c(=O)c3c2)c1	9.3 ×10⁻⁶ cm/s
Cc1ccc(-n2nc3c(=O)n(CCCC(=O)NCc4ccc(F)cc4)nc(C)c3c2C)cc1	842 ×10⁻⁶ cm/s
Cc1ccnc(NC(=S)N2CCN(c3ncc(C(F)(F)F)cc3Cl)CC2)c1	930 ×10⁻⁶ cm/s
CCc1oc2ccccc2c1C(=O)c1cc(Br)c(O)c(Br)c1	62 ×10⁻⁶ cm/s
NC(=O)C1CCN(c2nc(-c3ccc(F)cc3)cs2)CC1	198 ×10⁻⁶ cm/s
O=C1Nc2cc(Cl)ccc2Nc2cscc21	478 ×10⁻⁶ cm/s
COC(=O)c1nc(-c2cccc3ccccc23)oc1OC	939 ×10⁻⁶ cm/s
CN(C)C(=O)c1nc(-c2ccc(Cl)nc2)c2ccccn12	> 1000 ×10⁻⁶ cm/s
CCOc1ccc(CCNC(=O)c2cc3sccc3n2CCN2CCOCC2)cc1OCC	> 1000 ×10⁻⁶ cm/s
NC(=O)C1CCN(c2nc(-c3ccc(N4CCCCC4)nc3)cs2)CC1	23.9 ×10⁻⁶ cm/s
Cc1nn(CC(=O)NCCCN2CCC(N3CCCCC3)CC2)c(=O)c2cc(-c3ccccc3)nn12	15.4 ×10⁻⁶ cm/s
Cc1ccc(S(=O)(=O)Nc2ccccc2C(=O)Nc2nc(-c3ccccc3)co2)cc1	358 ×10⁻⁶ cm/s
CCCOC(c1cc2nccc(C(=O)O)c2[nH]1)c1ccccc1Cl (stereo unspecified)	12.9 ×10⁻⁶ cm/s
Clc1ccc2ncc(-c3cccc(NC4CCNC4)n3)n2c1 (stereo unspecified)	332 ×10⁻⁶ cm/s
O=C(CCCCn1c(=O)[nH]c2ccsc2c1=O)N1CCN(c2cccc(Cl)c2)CC1	855 ×10⁻⁶ cm/s
Fc1ccc(Nc2nc(-n3ccnc3)nc3ccccc23)cc1F	223 ×10⁻⁶ cm/s

SMILES	Papp
Oc1ccc2[nH]cc(CCCCN3CC=C(c4ccccc4)CC3)c2c1	> 1000 ×10⁻⁶ cm/s
CCn1c(C)c(C(C)=O)c(C)c1C(=O)Nc1cccc([S+](=O)([O-])N(C)C)c1	405 ×10⁻⁶ cm/s
O=C(NC1CC1)c1nc(-c2cccnc2)c2ccccn12	652 ×10⁻⁶ cm/s
FC(F)(F)c1ccc(N2CCN(C(=S)Nc3ccccn3)CC2)cc1	815 ×10⁻⁶ cm/s
N#Cc1ccccc1S(=O)(=O)Nc1cnccc1C(=O)Nc1nc(-c2ccccc2)cs1	61.8 ×10⁻⁶ cm/s
O=C(NCc1ccc(N2CCCC2)nc1)c1cc(Cl)ccc1O	> 1000 ×10⁻⁶ cm/s
CN1Cc2c(cc(N3CCOCC3)nc2-c2ccccc2OC(F)(F)F)C1=O	> 1000 ×10⁻⁶ cm/s
Cc1ccnc(NC(=S)N2CCC(c3cccc(C(F)(F)F)c3)CC2)c1	672 ×10⁻⁶ cm/s
CC1=C(C(=O)Nc2ccccc2C)C(c2ccccc2Br)N=C(Nc2nc3ccccc3o2)N1 (stereo unspecified)	390 ×10⁻⁶ cm/s
N#Cc1nc(-c2cccc3ccccc23)oc1NC1COC1	> 1000 ×10⁻⁶ cm/s
Cc1ccc(-c2csc(N3CCC(C(N)=O)CC3)n2)cc1	711 ×10⁻⁶ cm/s
Cc1ccnc(NC(=S)N2CCN(c3cccc(C(F)(F)F)c3)CC2)c1	> 1000 ×10⁻⁶ cm/s
COc1ccc2cc1Oc1ccc(cc1)C[C@@H]1c3c(cc(OC)c4c3Oc3cc5c(cc3O4)CCN[C@H]5C2)CCN1C	217 ×10⁻⁶ cm/s
COc1cccc(CNc2ccc(S(=O)(=O)Nc3cccc4ccccc34)cc2)c1O	< 1 ×10⁻⁶ cm/s
O=C1CCCC2=C1C(c1ccncc1Cl)N=C(Nc1nc3ccccc3o1)N2 (stereo unspecified)	897 ×10⁻⁶ cm/s
Cc1cc(-c2nnc3n2CCCCC3)c(C)n1-c1cccc(C#N)c1	229 ×10⁻⁶ cm/s
CC(=O)OCCN1C(=O)c2c(C)nc3ccc(S(=O)(=O)N4CCOCC4)cc3c2C1=O	665 ×10⁻⁶ cm/s
COc1cc(-c2nc(Nc3ccc(F)c(F)c3)c3ccccc3n2)ccn1	22.5 ×10⁻⁶ cm/s
NC(=O)c1cnc(N[C@@H]2CCCC[C@@H]2N)nc1Nc1cccc(-n2nccn2)c1	11.7 ×10⁻⁶ cm/s
Clc1ccc2ncc(-c3cccc(NC4CCNCC4)n3)n2c1	807 ×10⁻⁶ cm/s
COc1cc(-c2c(C#N)c(N)nc3c2c(C)nn3-c2ccc(F)cc2)ccc1O	> 1000 ×10⁻⁶ cm/s
Cc1cc(NS(=O)(=O)c2ccc(NC(=O)Cc3ccc(Cl)c(Cl)c3)cc2)no1	30.2 ×10⁻⁶ cm/s

Next, values leading:

Papp	SMILES
8.72 ×10⁻⁶ cm/s	COc1ccc(-c2nc3ccccc3c(=O)n2Cc2ccco2)cc1COc1ccc(NC(C)=O)cc1
197 ×10⁻⁶ cm/s	COc1ccccc1NS(=O)(=O)c1cccc(NC(=O)c2[nH]c(C)c(C(C)=O)c2C)c1
> 1000 ×10⁻⁶ cm/s	Cc1ccc(S(=O)(=O)N2CCN(C(=O)c3cc4c(s3)CCC4)CC2)cc1
398 ×10⁻⁶ cm/s	COC(=O)c1ccnc(-c2cc(C(=O)NCCc3ccccc3)ccn2)c1
> 1000 ×10⁻⁶ cm/s	Cc1ccc(C)c(CN2C(=O)c3ccccc3S(=O)c3ccc(C(=O)N4CCN(c5ccccc5F)CC4)cc32)c1 (stereo unspecified)
527 ×10⁻⁶ cm/s	O=C(c1ccc2ccccc2c1)N1CCN(c2ccc(O)cc2)CC1
19.2 ×10⁻⁶ cm/s	COc1cccc(C(=O)Nc2nnc(S(=O)(=O)N3CCOCC3)s2)c1
8 ×10⁻⁶ cm/s	Cc1ccc(NC(=O)Nc2cc3c(cc2N2CCCCC2)n(C)c(=O)n3C)cc1Cl
8.29 ×10⁻⁶ cm/s	Cc1ccc(S(=O)(=O)Nc2cnccc2C(=O)Nc2ccc(-n3cncn3)cc2)cc1
802 ×10⁻⁶ cm/s	Cc1ccc(CN2C(=O)C(O)(CC(=O)c3ccc(C)cc3)c3ccccc32)cc1 (stereo unspecified)
26.6 ×10⁻⁶ cm/s	O=C(Nc1cccc(OC(F)(F)F)c1)c1cc(-c2ccc[nH]2)n[nH]1
1.2 ×10⁻⁶ cm/s	Cc1ccc(S(=O)(=O)c2cnc(SC(C)C(=O)Nc3ccccc3)[nH]c2=O)cc1 (stereo unspecified)
111 ×10⁻⁶ cm/s	CCc1ccc(NC(=O)[C@H](Cc2c[nH]c3ccccc23)NC(=O)[C@@H]2Cc3ccccc3CN2)cc1
< 1 ×10⁻⁶ cm/s	Cc1ccc(S(=O)(=O)Nc2ccncc2C(=O)Nc2nc(-c3ccccc3)cs2)cc1
3.74 ×10⁻⁶ cm/s	COc1ccc(O)c(CNc2ccc(S(=O)(=O)Nc3nccs3)cc2)c1
2.2 ×10⁻⁶ cm/s	Cc1ccc(S(=O)(=O)Nc2cnccc2C(=O)Nc2ccc(-c3nc4ccccc4[nH]3)cc2)cc1

Papp	SMILES
> 1000 ×10⁻⁶ cm/s	CC(C)NC(=O)C1CCN(C(=O)c2cc3sccc3n2Cc2ccc(Cl)cc2)CC1
> 1000 ×10⁻⁶ cm/s	CC(=O)Nc1ccc(CN2CCc3nc(C(C)C)nc(-c4ccc(Cl)cc4)c3CC2)cc1
5.16 ×10⁻⁶ cm/s	COc1cccc(O)c1CNc1ccc(S(=O)(=O)Nc2nccs2)cc1
581 ×10⁻⁶ cm/s	COc1ccc(NC(=O)c2c(C)cccc2C)cc1S(=O)(=O)Nc1ccc(Br)cc1
48.1 ×10⁻⁶ cm/s	CCc1ccc(NC(=O)c2[nH]c(C)c(C(C)=O)c2C)cc1S(=O)(=O)Nc1ccc(C#N)cc1
961 ×10⁻⁶ cm/s	COCCNC(=O)[C@H]1C[C@H](Oc2ccccc2)CN1Cc1ccc2[nH]ccc2c1
20.9 ×10⁻⁶ cm/s	O=C(CCc1ccccc1)NC(c1cccs1)c1cc(Cl)c2cccnc2c1O (stereo unspecified)
990 ×10⁻⁶ cm/s	Cc1cc(C)c(C(=O)Nc2cccc([S+](=O)([O-])N3CCCCCC3)c2)[nH]1
238 ×10⁻⁶ cm/s	CC1=NN(c2ccc(C(=O)O)cc2)C(=O)/C1=C/c1ccc(-c2cc(C)c(C)cc2[N+](=O)[O-])o1
491 ×10⁻⁶ cm/s	CC(C)Oc1ccc(C(=O)Nc2ccc3c(c2)CCCN3C(=O)c2cccs2)cc1
240 ×10⁻⁶ cm/s	Cc1cc(C)c2nc(-c3ccccn3)cc(C(=O)Nc3ccc(S(=O)(=O)Nc4onc(C)c4C)cc3)c2c1
157 ×10⁻⁶ cm/s	Cc1ccc(NC(=O)c2cc(-c3ccc[nH]3)n[nH]2)cc1F
740 ×10⁻⁶ cm/s	Cc1ccc(S(=O)(=O)Nc2cnccc2C(=O)Nc2nc(-c3nc4ccccc4s3)cs2)cc1
247 ×10⁻⁶ cm/s	Cc1onc(-c2ccccc2)c1C(=O)Nc1nnc(COc2ccc(Cl)cc2)s1
136 ×10⁻⁶ cm/s	O=C(Nc1cccc(F)c1)c1cc(-c2ccc[nH]2)n[nH]1
